Reference: US20240425545A1 (Durect Corporation, priority 2021, published 2024)
Entries after “also recorded” stand apart in the source; their conditions may differ. Read-outs that look alike come from different tables or passages of the source.

How the values were obtained:
[1] = Description: Angle of repose is measured as follows. Powder is poured from a funnel onto a flat surface until a cone of powder is created. The angle of repose is calculated according to the following equation: […]
The height of the cone was estimated with calipers.

[2] = remark: listed apart in the source
Description: Four vials were prepared and stored at 2-8° C. or […] according to Table B2. The samples were scheduled initially to pull for testing at 3 weeks and 6 weeks time points.
For appearance, each unopened vial was visually examined for color, clumping, and flowability.
Based on the molecular weights, and expected UV response factors used in this study, the expected analytical sample concentrations were within the range of the 25HC3S sodium reference standards (0.75 mg/mL to 1.25 mg/mL as 25HC3S Sodium Salt).
Samples were prepared by pipetting 20 mL of 100% methanol into each vial and mixing well, with sonication and vortexing to fully dissolve the samples for HPLC analysis.
HPLC analysis was performed.

[3] = Dynamic vapor sorption (DVS); format: physicochemical; conditions: for Hygroscopicity: in words, up to about 95% relative humidity
Description: Dynamic vapor sorption data was collected on a Surface Measurement System DVS Intrinsic instrument. The samples were not dried prior to analysis. […] Data were not corrected for the initial moisture content of the sample.

[4] = 5 mL cylinder, 300 taps
Description: Although there are some variations in the method of determining the compressibility index and Hausner ratio, the basic procedure is to measure the unsettled apparent volume, VO, and the final tapped volume, Vf, of the powder after tapping the material until no further volume changes occur. The compressibility index and the Hausner ratio are calculated as follows: […]
Powder was carefully poured into a 5 mL glass graduated cylinder (to contain) until it was close to or at 5.0 mL. This initial volume was recorded as Vo. The graduated cylinder was tapped on a hard surface for 200 times and the volume was recorded. The cylinder was tapped 100 times more, and the final volume Vf was recorded.

Compound | Angle of Repose ([1]; about 2 g powder, cone of 21.14 mm diameter) | Angle of Repose Rounded Whole Number ([1]; rounded) | Physical and chemical solid-state stability, comments [2] | Temperature stability [2] | % Recovery of 2-8° C./3 wk vs 60° C./1 wk; 2-8° C./5 wk vs 80° C./5 wk ([2]; 3 wk) | % Recovery of 2-8° C./3 wk vs 60° C./1 wk; 2-8° C./5 wk vs 80° C./5 wk ([2]; 5 wk) | X-ray powder diffraction pattern after DVS ([3]; before vs after DVS, FIG. 3) | Hygroscopicity [3] | Hygroscopicity ([3]; listed as crystalline 25HC3S choline) | Compressibility Index [4] | Hausner Ratio [4] | Weight gain (water uptake) in DVS ([3]; from 5% up to about 95% relative humidity)
C[C@H](CCCC(C)(C)O)[C@H]1CC[C@H]2[C@@H]3CC=C4C[C@@H](OS(=O)(=O)[O-])CC[C@]4(C)[C@H]3CC[C@]12C.C[N+](C)(C)CCO [25HC3S choline, 25-Hydroxy-Cholest-5-En-3-Sulfate Choline] | 34.9 degrees | 35 degrees | Stable after 5 weeks at 80 °C physically and | good temperature stability | 100.8% | 97.3% | does not appreciably change | less hygroscopic | not appreciably hygroscopic; also recorded: less hygroscopic | 42 | 1.72 | –
C[C@H](CCCC(C)(C)O)[C@H]1CC[C@H]2[C@@H]3CC=C4C[C@@H](OS(=O)(=O)[O-])CC[C@]4(C)[C@H]3CC[C@]12C.[Na+] [crystalline 25HC3S sodium, reference compound] | – | – | – | – | – | – | – | – | – | – | – | significant water uptake
